Measurements taken from publication PMC3524419 (ChemMedChem, 2012).
pIC50: −log10 of the molar value.

Target: T1, COX-1 (ovine) (Ovis aries, UniProt P05979)
T1 sequence (P05979 25-600): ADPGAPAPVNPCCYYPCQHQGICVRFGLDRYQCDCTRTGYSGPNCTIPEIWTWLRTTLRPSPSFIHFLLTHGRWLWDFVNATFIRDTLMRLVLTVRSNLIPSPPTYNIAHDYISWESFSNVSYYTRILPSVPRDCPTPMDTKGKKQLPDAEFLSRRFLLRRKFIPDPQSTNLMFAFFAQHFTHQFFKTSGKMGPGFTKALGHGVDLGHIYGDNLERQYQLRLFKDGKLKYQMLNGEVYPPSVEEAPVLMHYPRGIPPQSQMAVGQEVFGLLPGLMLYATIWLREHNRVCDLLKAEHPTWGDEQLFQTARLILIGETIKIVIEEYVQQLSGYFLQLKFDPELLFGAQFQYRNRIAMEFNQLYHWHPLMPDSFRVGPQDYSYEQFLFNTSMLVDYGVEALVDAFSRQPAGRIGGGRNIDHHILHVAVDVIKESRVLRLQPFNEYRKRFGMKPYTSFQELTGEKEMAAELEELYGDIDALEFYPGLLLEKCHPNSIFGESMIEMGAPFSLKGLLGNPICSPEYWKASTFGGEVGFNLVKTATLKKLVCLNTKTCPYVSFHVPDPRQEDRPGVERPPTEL
Test: 12-HHT formation from arachidonic acid, HPLC
Assay type: biochemical

pIC50	SMILES
< 4.52	CCCCCC(=O)Cc1cc(O)cc2c1C(=O)Oc1cc(O)c(C(=O)O)c(CCCCC)c1O2 [compound 2, physodic acid]
< 4.52	CCCCCc1cc(OC(=O)c2c(O)cc(OC)cc2CCCCC)cc(O)c1C(=O)O [compound 8, perlatolic acid]
< 4.52	CCCCCC(=O)Cc1cc(O)cc(O)c1C(=O)Oc1cc(O)c(C(=O)O)c(CCCCC)c1 [compound 9, olivetoric acid]
